Results on 50 compounds are retold here after patent publication US8399480B2, “Hydroxymethyl pyrrolidines as beta 3 adrenergic receptor agonists” (Merck Sharp & Dohme Corp., priority 2008, dated 2013).

T1 sequence (P13945 whole entry): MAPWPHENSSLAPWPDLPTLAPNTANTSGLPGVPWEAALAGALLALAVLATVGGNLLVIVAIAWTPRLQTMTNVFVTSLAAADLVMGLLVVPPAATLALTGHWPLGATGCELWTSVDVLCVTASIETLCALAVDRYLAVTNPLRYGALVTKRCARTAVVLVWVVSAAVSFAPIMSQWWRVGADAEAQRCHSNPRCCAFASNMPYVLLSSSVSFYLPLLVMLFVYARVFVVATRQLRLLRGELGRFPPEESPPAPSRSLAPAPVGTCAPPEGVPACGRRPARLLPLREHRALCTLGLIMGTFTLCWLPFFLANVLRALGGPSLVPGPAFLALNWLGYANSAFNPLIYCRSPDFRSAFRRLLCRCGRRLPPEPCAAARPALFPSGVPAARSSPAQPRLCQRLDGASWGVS

The first assay concerns the target T1, human β3 adrenergic receptor (Homo sapiens, UniProt P13945).
T1 construct: expressed in transfected cells; host or cells: Chinese hamster ovary (CHO) cells, stably transfected
The assay is described as follows: Functional assay: cAMP production (LANCE TR-FRET) in CHO cells stably transfected with cloned β3 adrenergic receptor. The assay is classed as cell-based. The settings on record: Table 4; human β3 functional activity; read-out: Human β Binding. Here is the method: Chinese hamster ovary (CHO) cells, stably transfected with the cloned β-adrenergic receptor (β1, β2 or β3) are harvested after 3 days of subculturing. Harvesting of cells is done with Enzyme-free Dissociation Media (Specialty Media). Cells are then counted and resuspended in assay buffer (Hank's Balanced salt solution supplemented with 5 mM HEPES, 0.1% BSA) containing a phosphodiesterase inhibitor (IBMX, 0.6 mM). The reaction is initiated by mixing 6,000 cells in 6 μL with 6 μL Alexa Fluor labeled cAMP antibody (LANCE™ kit) which is then added to an assay well containing 12 μL of compound (diluted in assay buffer to 2× final concentration). The reaction proceeds for 30 min at room temperature and is terminated by the addition of 24 μL detection buffer (LANCE™ kit). The assay plate is then incubated for 1 h at room temperature and time-resolved fluorescence measured on a Perkin Elmer Envision reader or equivalent. The unknown cAMP level is determined by comparing fluorescence levels to a cAMP standard curve.
The non-selective, full agonist β-adrenergic ligand isoproterenol is used at all three receptors to determine maximal stimulation. […] Data are analyzed using Microsoft Excel and Graphpad Prism or an internally developed data analysis software package.
For the compound `O=C(Cn1ncc2ccccc2c1=O)Nc1ccc(C[C@@H]2CC[C@H]([C@H](O)c3ccccc3)N2)cc1` [Example 49], the EC50 fell in the range of 1 to 10 nM.

With `O=C(Cn1ccc(=O)nc1)Nc1ccc(C[C@@H]2CC[C@H]([C@H](O)c3ccccc3)N2)cc1` [Example 66], the EC50 lay in the range of 101 to 1000 nM.

`O=C(Cn1nccn1)Nc1ccc(C[C@@H]2CC[C@H]([C@H](O)c3ccccc3)N2)cc1` [Example 81]: the EC50 fell in the range of 11 to 100 nM.

For the compound `Cc1nonc1CC(=O)Nc1ccc(C[C@@H]2CC[C@H]([C@H](O)c3ccccc3)N2)cc1` [Example 82], the EC50 lay within 1 to 10 nM.

In the case of `Cc1cn(CC(=O)Nc2ccc(C[C@@H]3CC[C@H]([C@H](O)c4ccccc4)N3)cc2)nn1` [Example 79], the EC50 was in the range of 1 to 10 nM.

In the case of `O=C(Nc1ccc(C[C@@H]2CC[C@H]([C@H](O)c3ccccc3)N2)cc1)c1ccccc1CCn1cccc1` [Example 32], the EC50 was 11 to 100 nM.

For the compound `O=C(Cn1ccc2ncccc2c1=O)Nc1ccc(C[C@@H]2CC[C@H]([C@H](O)c3ccccc3)N2)cc1` [Example 62], the EC50 was in the range of 1 to 10 nM.

As to `O=C(CC1CCCNC1=O)Nc1ccc(C[C@@H]2CC[C@H]([C@H](O)c3ccccc3)N2)cc1` (some centres unmarked) [Example 85], the EC50 lay within 101 to 1000 nM.

Take `O=C(Cn1nc(Cl)ccc1=O)Nc1ccc(C[C@@H]2CC[C@H]([C@H](O)c3ccccc3)N2)cc1` [Example 51]: the EC50 was 1 to 10 nM.

Consider `Cc1nc(C)c(CC(=O)Nc2ccc(C[C@@H]3CC[C@H]([C@H](O)c4ccccc4)N3)cc2)s1` [Example 9], for which the EC50 lay within 101 to 1000 nM.

For the compound `O=C(Cn1nnc2ccccc2c1=O)Nc1ccc(C[C@@H]2CC[C@H]([C@H](O)c3ccccc3)N2)cc1` [Example 59], the EC50 was 1 to 10 nM.

`CN1CCCN(CC(=O)Nc2ccc(C[C@@H]3CC[C@H]([C@H](O)c4ccccc4)N3)cc2)C1=O` [Example 99]: the EC50 fell in the range of 11 to 100 nM.

As for `O=C(Cc1nnc(-c2ccn[nH]2)[nH]1)Nc1ccc(C[C@@H]2CC[C@H]([C@H](O)c3ccccc3)N2)cc1` [Example 27], the EC50 lay within 1 to 10 nM.

For `Cc1cccc2c(=O)n(CC(=O)Nc3ccc(C[C@@H]4CC[C@H]([C@H](O)c5ccccc5)N4)cc3)cnc12` [Example 58], the EC50 is 1 to 10 nM.

Take `Cc1nc2c(CC(=O)Nc3ccc(C[C@@H]4CC[C@H]([C@H](O)c5ccccc5)N4)cc3)cccn2n1` [Example 97]: the EC50 lay in the range of 1000 to 3000 nM.

Turning to `O=C(Cn1c(=O)ncc2ccccc21)Nc1ccc(C[C@@H]2CC[C@H]([C@H](O)c3ccccc3)N2)cc1` [Example 17], the EC50 is 1 to 10 nM.

Turning to `O=C(CN1CCCCC1=O)Nc1ccc(C[C@@H]2CC[C@H]([C@H](O)c3ccccc3)N2)cc1` [Example 89], the EC50 was in the range of 1 to 10 nM.

On to `O=C(Cc1c(F)cccc1F)Nc1ccc(C[C@@H]2CC[C@H]([C@H](O)c3ccccc3)N2)cc1` [Example 71], for which the EC50 lay in the range of 1 to 10 nM.

The assay is the same for the next values; noted with them: Table 5; read-out: Human β3 Functional.
With `Cc1cc(C(C)C(=O)Nc2ccc(C[C@@H]3CC[C@H]([C@H](O)c4ccccc4)N3)cc2)[nH]n1` (single isomer, unassigned) [Example 185], the EC50 lay in the range of 1 to 10 nM.

As to `Cc1nc2c(s1)CCCC2C(=O)Nc1ccc(C[C@@H]2CC[C@H]([C@H](O)c3ccccc3)N2)cc1` (single isomer, unassigned) [Example 120], the EC50 was in the range of 11 to 100 nM.

With `O=C(Nc1ccc(C[C@@H]2CC[C@H]([C@H](O)c3ccccc3)N2)cc1)C1CCc2ncnn21` (single isomer, unassigned) [Example 128], the EC50 was in the range of 11 to 100 nM.

Regarding `Cc1ccc(=O)n(C(C)C(=O)Nc2ccc(C[C@@H]3CC[C@H]([C@H](O)c4ccccc4)N3)cc2)n1` (single isomer, unassigned) [Example 165], the EC50 fell in the range of 1 to 10 nM.

Regarding `COC(=O)c1cn(C(C)C(=O)Nc2ccc(C[C@@H]3CC[C@H]([C@H](O)c4ccccc4)N3)cc2)nn1` (single isomer, unassigned) [Example 189], the EC50 was in the range of 11 to 100 nM.

Consider `CC(C(=O)Nc1ccc(C[C@@H]2CC[C@H]([C@H](O)c3ccccc3)N2)cc1)n1ccccc1=O` (single isomer, unassigned) [Example 202], for which the EC50 was in the range of 1 to 10 nM.

On to `Cc1nnc2n1CCCC2C(=O)Nc1ccc(C[C@@H]2CC[C@H]([C@H](O)c3ccccc3)N2)cc1` (single isomer, unassigned) [Example 151], for which the EC50 lay within 1 to 10 nM.

With `O=C(Nc1ccc(C[C@@H]2CC[C@H]([C@H](O)c3ccccc3)N2)cc1)C1CCCn2nnnc21` (single isomer, unassigned) [Example 153], the EC50 lay in the range of 11 to 100 nM.

With `CCC(C(=O)Nc1ccc(C[C@@H]2CC[C@H]([C@H](O)c3ccccc3)N2)cc1)n1cccn1` (single isomer, unassigned) [Example 218], the EC50 lay in the range of 1 to 10 nM.

Consider `O=C(Nc1ccc(C[C@@H]2CC[C@H]([C@H](O)c3ccccc3)N2)cc1)C1CCc2sc(Br)nc21` (single isomer, unassigned) [Example 145], for which the EC50 is < 1 nM.

As for `CC(C(=O)Nc1ccc(C[C@@H]2CC[C@H]([C@H](O)c3ccccc3)N2)cc1)n1cnc2ccccc2c1=O` (single isomer, unassigned) [Example 166], the EC50 is 1 to 10 nM.

Staying with this assay, now noted: Table 6; read-out: Human β3 Functional.
`Cc1nc2c(s1)CCCC2C(=O)Nc1ccc(CC2CCC(C(O)c3ccccc3)N2)cc1` (single isomer, unassigned) [Example 232]: the EC50 was in the range of 1000 to 3000 nM.

For the compound `Cc1nc2c(s1)CCCC2C(=O)Nc1ccc(CC2CCC(C(O)c3ccccc3)N2)cc1` (single isomer, unassigned) [Example 231], the EC50 is 101 to 1000 nM.

Staying with this assay, now noted: Table 7; β3AR-cAMP; read-out: Human β3 Functional.
As for `O=S(=O)(Nc1ccc(C[C@@H]2CC[C@H]([C@H](O)c3ccccc3)N2)cc1)c1cccc2ccncc12` [Example 236], the EC50 lay in the range of 1000 to 3000 nM.

In the case of `O=S(=O)(Nc1ccc(C[C@@H]2CC[C@H]([C@H](O)c3ccccc3)N2)cc1)c1ccc2ncsc2c1` [Example 239], the EC50 was 11 to 100 nM.

Regarding `Cc1nnc(-c2cccc(S(=O)(=O)Nc3ccc(C[C@@H]4CC[C@H]([C@H](O)c5ccccc5)N4)cc3)c2)o1` [Example 242], the EC50 lay in the range of 101 to 1000 nM.

Take `O=S(=O)(Nc1ccc(C[C@@H]2CC[C@H]([C@H](O)c3ccccc3)N2)cc1)c1ccc(-c2cocn2)cc1` [Example 241]: the EC50 was in the range of 11 to 100 nM.

In the case of `O=S(=O)(Cc1ccncc1)Nc1ccc(C[C@@H]2CC[C@H]([C@H](O)c3ccccc3)N2)cc1` [Example 250], the EC50 is 101 to 1000 nM.

Still in this assay, the particulars now being: Table 8; read-out: Human β3 Functional.
As for `O=C(Nc1ccc(C[C@@H]2CC[C@H]([C@H](O)c3ccccc3)N2)cc1)N1CCC2(CCOC2=O)CC1` [Example 258], the EC50 fell in the range of 101 to 1000 nM.

For `Cc1cc(C)nc(CNC(=O)Nc2ccc(C[C@@H]3CC[C@H]([C@H](O)c4ccccc4)N3)cc2)n1` [Example 256], the EC50 was 11 to 100 nM.

The same assay, now with this note: Table 9; read-out: Human β^3 Functional.
For `CC(N)C(=O)Nc1ccc(C[C@@H]2CC[C@H]([C@H](O)c3ccccc3)N2)cc1` (some centres unmarked) [Example 270], the EC50 lay in the range of 11 to 100 nM.

The same assay, now with this note: Table 10; β3AR-cAMP; read-out: Human β3 Functional.
Take `Cc1nnc(CC(=O)Nc2ccc(C[C@@H]3CC[C@H]([C@H](O)c4cccc(F)c4)N3)cc2)[nH]1` [Example 280]: the EC50 fell in the range of 1 to 10 nM.

Still in this assay, the particulars now being: Table 11; read-out: Human β3 Functional.
Take `O=C(Cn1ncccc1=O)Nc1ccc(C[C@@H]2CC[C@H]([C@H](O)c3ccc(F)cc3)N2)cc1` [Example 287]: the EC50 fell in the range of 1 to 10 nM.

The same assay, now with this note: Table 12; read-out: Human β3 Functional.
As to `Nc1nc2c(s1)CCC2C(=O)Nc1ccc(CC2CCC(C(O)c3ccc(F)c(F)c3)N2)cc1` (single isomer, unassigned) [Example 289], the EC50 was < 1 nM.

With `Nc1nc2c(s1)CCC2C(=O)Nc1ccc(CC2CCC(C(O)c3ccc(F)c(F)c3)N2)cc1` (single isomer, unassigned) [Example 288], the EC50 was in the range of 11 to 100 nM.

Regarding `Nc1nc2c(s1)CCC2C(=O)Nc1ccc(CC2CCC(C(O)c3ccc(F)c(F)c3)N2)cc1` (single isomer, unassigned) [Example 292], the EC50 was < 1 nM.

Staying with this assay, now noted: given as a range; cAMP, CHO cells; read-out: human β3 functional activity.
For `C[C@H](NC(=O)c1ccccc1F)C(=O)Nc1ccc(C[C@@H]2CC[C@H]([C@H](O)c3ccccc3)N2)cc1` [Example 263, 2-Fluoro-N-((1S)-2-{[4-({(2S,5R)-5-[(R)-hydroxy(phenyl)methyl]pyrrolidin-2-yl}methyl)phenyl]amino}-1-methyl-2-oxoethyl)benzamide], the EC50 is < 1 nM.

On to `Nc1nc2c(s1)CCC2C(=O)Nc1ccc(C[C@@H]2CC[C@H]([C@H](O)c3ccccc3)N2)cc1` (single isomer, unassigned) [Example 4], for which the EC50 is < 1 nM.

In the case of `COc1cccc(NC(=O)Nc2ccc(C[C@@H]3CC[C@H]([C@H](O)c4ccccc4)N3)cc2)c1` [Example 251, N-[4-({(2S,5R)-5-[(R)-hydroxy(phenyl)methyl]pyrrolidin-2-yl}methyl)phenyl]-N′-(3-methoxyphenyl)urea], the EC50 was in the range of 11 to 100 nM.

Still in this assay, the particulars now being: human β3 functional activity, shown as ranges; Table 13; read-out: Human β3 Functional.
For `Nc1nc(CC(=O)Nc2ccc(C[C@@H]3CC[C@H]([C@H](O)c4cccc(Cl)c4)N3)cc2)cs1` [Example 304], the EC50 lay in the range of 1 to 10 nM.

As for `Nc1nc2c(s1)CCC2C(=O)Nc1ccc(CC2CCC(C(O)c3cccc(Cl)c3)N2)cc1` (single isomer, unassigned) [Example 294], the EC50 was 11 to 100 nM.

For `O=C(Nc1ccc(C[C@@H]2CC[C@H]([C@H](O)c3cccc(Cl)c3)N2)cc1)[C@@H]1CCc2scnc21` [Example 297], the EC50 is < 1 nM.
